The values that follow come from ChEMBL document CHEMBL1137874, “A new class of acyclic 2-alkyl-1,2-diaryl (E)-olefins as selective cyclooxygenase-2 (COX-2) inhibitors” (Bioorg Med Chem Lett, 2004).

Molecules are shown by their SMILES.

The target in this test is T1, Prostaglandin G/H synthase 1 (Ovis aries, UniProt P05979).
T1 sequence (P05979 whole entry): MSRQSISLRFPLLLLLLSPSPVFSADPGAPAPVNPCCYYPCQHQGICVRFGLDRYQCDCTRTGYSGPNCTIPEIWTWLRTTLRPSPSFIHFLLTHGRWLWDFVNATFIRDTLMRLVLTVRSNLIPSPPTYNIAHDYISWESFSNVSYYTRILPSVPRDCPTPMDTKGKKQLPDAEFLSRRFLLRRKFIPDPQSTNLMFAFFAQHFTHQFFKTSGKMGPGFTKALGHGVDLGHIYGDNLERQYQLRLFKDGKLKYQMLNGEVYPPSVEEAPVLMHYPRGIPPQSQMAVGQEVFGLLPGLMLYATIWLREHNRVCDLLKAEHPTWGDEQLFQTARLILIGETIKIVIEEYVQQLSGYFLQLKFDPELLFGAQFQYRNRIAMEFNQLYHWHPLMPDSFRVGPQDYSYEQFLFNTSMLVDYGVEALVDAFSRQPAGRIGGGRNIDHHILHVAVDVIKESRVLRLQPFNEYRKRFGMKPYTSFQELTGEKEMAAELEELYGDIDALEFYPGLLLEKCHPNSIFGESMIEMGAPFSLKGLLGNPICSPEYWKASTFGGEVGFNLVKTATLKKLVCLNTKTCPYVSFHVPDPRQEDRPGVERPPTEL
Briefly: In vitro inhibitory concentration against ovine Prostaglandin G/H synthase 1.

The IC50 is the midpoint of a concentration-inhibition curve. Read a high IC50 as a need for much substance. As for `CC/C(=C\c1ccc(C)cc1)c1ccc(S(C)(=O)=O)cc1`, the IC50 was 0.03 µM. This counts as double-digit nanomolar.
For `CCCCCC/C(=C\c1ccccc1)c1ccc(S(C)(=O)=O)cc1` the value was more than 100 µM; for `CCC/C(=C\c1ccccc1)c1ccc(S(C)(=O)=O)cc1`, more than 100 µM; for `CC/C(=C\c1ccccc1)c1ccc(S(C)(=O)=O)cc1`, more than 100 µM.
The figure for `CCCCCCC/C(=C\c1ccccc1)c1ccc(S(C)(=O)=O)cc1` is more than 100 µM.
